Laboratory results as given in patent US20120005128A1, “METHODS FOR REDUCING THE RISK OF AN ADVERSE DRONEDARONE / CALCIUM CHANNEL BLOCKERS INTERACTION IN A PATIENT SUFFERING FROM ATRIAL FIBRILATION” (sanofi, priority 2010, published 2012).
Structures can show the parent of a compound that is named as a salt.

What was measured:
[1] = ATHENA clinical study, patients with calcium channel blockers baseline medication; type: in vivo
Excerpt: Calcium channel blockers have been used in ATHENA clinical study and at the same rate in the dronedarone group and in the placebo group. About 13 to 20% of the patients had received one of these compounds during the study.
In the ATHENA trial, the concomitant administration of calcium antagonists and dronedarone was done according to the above mentioned instructions, i.e. start with low doses of the calcium antagonist and then increase the dose after ECG verification of good tolerability, if necessary and based on individual patient characteristics.
The relative risk (RR) was estimated using Cox's […] regression model.
The relative risk (RR) is the ratio of the rates of occurrence of a hospitalization or of a death among the patients on dronedarone, relative to the patients on placebo.
The percentage reduction x of a given event (hospitalization, death, cardiovascular death, etc.) is calculated in the following way: […]

[2] = 12-lead ECG (PR, QTcF intervals) in dronedarone/verapamil interaction study, Day 14; conditions: baseline Day 1, -0.5 h, least square means
[3] = Dronedarone/verapamil pharmacokinetic interaction crossover study, plasma PK on Day 14
[4] = dronedarone plus verapamil versus dronedarone alone
[5] = verapamil plus dronedarone versus verapamil alone
[6] = 331 patients with calcium channel blockers baseline medication, 122 events in placebo group (307 patients)
[7] = versus placebo, Cox model, calcium channel blockers baseline medication
[8] = versus placebo, calcium channel blockers baseline medication

CCCCc1oc2ccc(NS(C)(=O)=O)cc2c1C(=O)c1ccc(OCCCN(CCCC)CCCC)cc1 [Dronedarone, 2-n-Butyl-3-[4-(3-di-n-butylaminopropoxy)benzoyl]-5-methylsulphonamidobenzofuran]
Risk of hypotension, bradycardia and heart failure ([1]; patients using both dronedarone and calcium antagonists): no increase of the risk of hypotension, bradycardia and heart failure | Mean change (Eavr) in PR from baseline [2]: 9.7 ms | Mean change (Eavr) in QTcF from baseline [2]: 22.1 ms | Ratio of geometric means, AUC0-12 [3, 4]: 1.48 | Ratio of geometric means, Cmax [3, 4]: 1.42

COc1ccc(CCNCCCC(C#N)(c2ccc(OC)c(OC)c2)C(C)C)cc1OC (stereo not drawn) [NVP, norverapamil]
Ratio of geometric means, AUC0-24 [3, 5]: 1.29 | Ratio of geometric means, Cmax [3, 5]: 1.31

CCCCc1oc2ccc(NS(C)(=O)=O)cc2c1C(=O)c1ccc(OCCCN(CCCC)CCCC)cc1 [dronedarone hydrochloride]
Number of events, hospitalization for congestive heart failure (CHF) ([1]; 331 patients with calcium channel blockers baseline medication, 23 events in placebo group (307 patients)): 14 | Number of events, cardiovascular hospitalization or death [1, 6]: 90 | Number of events, death [1, 6]: 90 | Relative risk, cardiovascular hospitalization or death [1, 7]: 0.628 | Relative risk, death [1, 7]: 0.628 | Relative risk, hospitalization for congestive heart failure (CHF) [1, 7]: 0.556 | Decrease of CHF [1, 8]: 44% | Decrease of cardiovascular hospitalization or death [1, 8]: 37% | Decrease of death [1, 8]: 37%

COc1ccc(CCN(C)CCCC(C#N)(c2ccc(OC)c(OC)c2)C(C)C)cc1OC (stereo not drawn) [VP, verapamil]
Mean change (Eavr) in PR from baseline [2]: 4.2 ms | Mean change (Eavr) in QTcF from baseline [2]: 2.1 ms
